Measurements taken from patent publication US20040019092A1, “Non-peptide somatostatin receptor ligands” (priority 2001, published 2004).
Several values for one entry are separate records, joined by “and”; a condition that tells them apart may be missing. Equal entries are not always repeated.

What was measured:
[1] = tested on: GHRH stimulated GH secretion; experiment: GH secretion in vivo, rat, intravenous infusion with repeated GHRH stimulation
Procedure: (§1) Animals, anesthesia: Male rats of a Sprague Dawley strain (Ico:OFA-SD, Iffa-Credo, F-Lyon) of 200-300 g body weight were used. They were kept under standardized conditions and were anesthetized with pentobarbital-sodium (Siegfried, CH Zofingen), 60 mg/kg i.p. for subcutaneous and intraduodenal applications. Animals designed for an infusion experiment were anesthetized with urethane (Siegfried, CH Zofingen), 1.2 g/kg i.p.
(§2) Stock solutions of the compounds were prepared in water with the addition of the necessary adjunct(s). Further dilutions were prepared allowing 5 mL/kg for subcutaneous application, 2 mL for intraduodenal (i.d.) application or 4.5 mL/kg for intravenous infusion. The solutions for the intravenous application/infusion were made isotonic by addition of glucose to a final concentration of 5%.
(§3) Applications were made, or, in the case of infusion, started, approximately 10 minutes after induction of anesthesia. No further treatment followed subcutaneous or intraduodenal application. Ten, twenty-five and fifty-five minutes after start of the intravenous infusion the GH secretion was stimulated with repeated intravenous injections of the potent GHRH analog, D-Ala2 GHRH1-29NH2, 1 μg/kg.
(§4) One hour after subcutaneous or intraduodenal application of the compounds, blood was collected from the trunk after decapitation. In the case of application by infusion, 5 minutes after each application of GHRH, a blood sample of 0.8 mL was taken from a V. jugularis and mixed with EDTA (Eppendorf tubes TOM14, Milian, CH Geneva). The blood samples were kept on ice and spun in a cooled centrifuge. The serum or plasma was separated and frozen.
(§5) Statistics: In each experiment, 4-5 animals were used per dose, with 6 to 8 animals as the control group that received the vehicle. The GH serum/plasma levels were averaged, the mean of the treated groups expressed in percent of the control group and the ID50-value for the inhibition of the secretion was determined graphically (log-probit) for each experiment. In most experiments with enteral (intraduodenal) application only 1 dose, 10 mg/kg, was given. […] Only inhibitions between 20 and 80% were considered reliable.
(§6) Two to four experiments were performed. In the case of proper dose response curves, allowing the determination of an ID50 values were averaged logarithmically. In the cases of single dose-experiments, the GH value in percent of control were averaged logarithmically and the ID50 for this value was taken from the table. ID50 values determined at the different time points during the infusion were averaged and this value was included in the tables.

SSTR5 = molecular target: T1, SSTR5 (Homo sapiens, UniProt P35346); experiment: Binding SSTR5; conditions: read-out: Bind SSTR5
T1 construct: host or cells: SRIF receptor expressing cell cultures (general statement only)

[2] = tested on: basal plasma levels of growth hormone, glucagon, insulin and glucose; experiment: Endocrine parameters in the Rhesus monkey after subcutaneous administration; format: in vivo
Procedure: Therefore, they were further investigated in the Rhesus monkey and their activity profile was determined. Using subcutaneous administration, they were characterized in this species, by measuring their effects on the basal plasma levels of growth hormone, glucagon, insulin as well changes in glucose levels.
Animals and blood sampling: Rhesus monkeys, fed on the previous day in the morning with fruits only, were placed, slightly anesthetized with ketamin (Ketalar©, Parke-Davis), in primate chairs and brought to the experimental room. A catheter, consisting of an in-dwelling cannula (Vasocan Braunüle, 20G, B. Braun Melsungen AG, D-Melsungen), an extension line made from PP 800/110/260/100 Portex© tubing and a special adapter between cannula and tubing with a minimal void volume, was placed in a saphenic vein. The total volume of this catheter was approximately 0.7 mL. The distal end was placed through a hole in the wall to the adjacent room in order to allow infusion and blood sampling without being noticed by the animal. The animals were monitored with a video system.
During the entire duration of the experiment an infusion of 5 to 10 mL/h of isotonic saline (NaCl 0.9% Braun, B. Braun Medical AG, CH-Emmenbrücke) containing heparin sodium 80 mg/L (Biochemie GMBH, A-Kundl) was maintained, using a roller pump (Vario-Perpex, Guldener, CH-Zürich). At each sampling time 1.5 mL (twice the void volume of the catheter) was taken in one syringe before collecting the actual blood sample of 2 mL in another syringe. The first 1.5 mL were reinfused immediately after the actual sample had been taken. The sample was mixed with 0.1 mL of a mixture containing EDTA (ethlenediaminetetraacetic acid tetrasodium Fluka, CH-Buchs) and aprotinin (Trasylol©, Bayer) resulting in final concentrations of 1.8 mg/mL and 1000 KIE/mL, respectively. The blood samples were kept on ice and spun in a cooled centrifuge. […]
Determinations: The blood levels of the hormones were determined by radioimmunoassay (RIA) using the appropriate antisera, antibodies, labels and standards, glucose by an enzymatic assay: […]

SSTR1 = molecular target: T2, SSTR1 (Homo sapiens, UniProt P30872); experiment: Binding SSTR1; conditions: > = extrapolated value; read-out: Bind SSTR1
T2 construct: host or cells: SRIF receptor expressing cell cultures (general statement only)

[3] = molecular target: T3, human sst2 receptor sub-type (Homo sapiens, UniProt P30874); experiment: In vitro binding, human sst2 receptor sub-type (SSTR2); conditions: Tables 8/9: Bind SSTR2 nM
T3 construct: host or cells: SRIF receptor expressing cell cultures (general statement only)
Procedure: The in vitro binding affinities for rat cortex SRIF receptors and the human sst2 receptor sub-type was assessed. Further the in vitro inhibition of the GHRH induced GH secretion in primary cultures of rat pituitary cells as well as the in vivo inhibition of GH secretion in the rat after systemic or enteral application was studied. […] Therefore, the in vivo activities of the compounds in rats with respect to inhibition of growth hormone release was also assessed. Most compounds selected were tested by enteral—intraduodenal (i.d.) application. For determination of the absolute activity and for the calculation of an enteral bioavailability, single subcutaneous (s.c.) application of intravenous (i.v.) infusion was used.

GH secretion [4] = experiment: GH secretion in vivo, rat, subcutaneous application, 1 h (basal); conditions: rat, basal GH secretion, 1 h after subcutaneous application
Procedure: as §1
(§7) Compounds: The compounds were dissolved, optionally with the aid of one or more of the following adjuncts:
as §2, §3, §4, §5, §6

SSTR3 = molecular target: T4, SSTR3 (Homo sapiens, UniProt P32745); experiment: Binding SSTR3; conditions: > = extrapolated value; read-out: Bind SSTR3
T4 construct: host or cells: SRIF receptor expressing cell cultures (general statement only)

SSTR4 = molecular target: T5, SSTR4 (Homo sapiens, UniProt P31391); experiment: Binding SSTR4; conditions: > = extrapolated value; read-out: Bind SSTR4
T5 construct: host or cells: SRIF receptor expressing cell cultures (general statement only)

SS1 = SS1 (Rattus norvegicus, UniProt P30680); experiment: SS-1 binding (Bind SS1 D.H.)
GH secretion [5] = experiment: GH secretion in vivo, rat, intraduodenal (enteral) application, 1 h (basal); conditions: basal GH secretion, 1 h after intraduodenal application, mostly approximate ID50 from single 10 mg/kg dose, Ø = no effect at this dose, > = extrapolated value, 10 mg/kg
Procedure: as §1, §7, §2, §3, §4, §5, §6

Chain of SS1 (P30680 whole entry): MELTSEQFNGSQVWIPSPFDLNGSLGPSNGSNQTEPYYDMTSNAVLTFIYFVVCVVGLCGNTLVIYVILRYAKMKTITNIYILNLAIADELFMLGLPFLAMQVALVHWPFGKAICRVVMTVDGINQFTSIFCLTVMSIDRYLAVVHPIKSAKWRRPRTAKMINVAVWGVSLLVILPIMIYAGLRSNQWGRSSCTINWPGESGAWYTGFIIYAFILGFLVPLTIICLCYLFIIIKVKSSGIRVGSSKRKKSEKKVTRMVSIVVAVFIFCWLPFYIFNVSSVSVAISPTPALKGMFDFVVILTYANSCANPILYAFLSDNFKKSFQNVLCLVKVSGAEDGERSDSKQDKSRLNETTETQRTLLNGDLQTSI
T2 sequence (P30872 whole entry, species assumed): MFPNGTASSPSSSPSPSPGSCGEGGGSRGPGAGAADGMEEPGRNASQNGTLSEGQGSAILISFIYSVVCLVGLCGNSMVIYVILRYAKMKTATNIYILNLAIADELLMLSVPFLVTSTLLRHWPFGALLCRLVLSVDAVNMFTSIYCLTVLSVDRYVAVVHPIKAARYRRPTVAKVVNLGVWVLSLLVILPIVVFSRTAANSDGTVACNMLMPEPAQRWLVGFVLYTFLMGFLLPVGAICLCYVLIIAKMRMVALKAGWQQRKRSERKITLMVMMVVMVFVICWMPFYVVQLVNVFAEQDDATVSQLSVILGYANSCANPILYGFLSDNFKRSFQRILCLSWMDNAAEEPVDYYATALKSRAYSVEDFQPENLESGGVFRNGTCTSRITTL
T4 sequence (P32745 whole entry, species assumed): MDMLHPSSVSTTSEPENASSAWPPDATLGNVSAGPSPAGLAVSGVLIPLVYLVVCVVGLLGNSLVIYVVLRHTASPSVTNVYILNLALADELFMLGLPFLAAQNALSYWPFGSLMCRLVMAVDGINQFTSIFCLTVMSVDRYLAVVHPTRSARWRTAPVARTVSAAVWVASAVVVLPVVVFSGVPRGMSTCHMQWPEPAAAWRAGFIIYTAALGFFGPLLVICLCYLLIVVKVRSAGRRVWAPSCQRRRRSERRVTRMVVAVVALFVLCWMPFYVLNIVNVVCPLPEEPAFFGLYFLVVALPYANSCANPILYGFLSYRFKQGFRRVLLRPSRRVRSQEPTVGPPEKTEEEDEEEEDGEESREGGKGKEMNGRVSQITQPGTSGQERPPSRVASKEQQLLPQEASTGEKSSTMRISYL
T3 sequence (P30874 whole entry): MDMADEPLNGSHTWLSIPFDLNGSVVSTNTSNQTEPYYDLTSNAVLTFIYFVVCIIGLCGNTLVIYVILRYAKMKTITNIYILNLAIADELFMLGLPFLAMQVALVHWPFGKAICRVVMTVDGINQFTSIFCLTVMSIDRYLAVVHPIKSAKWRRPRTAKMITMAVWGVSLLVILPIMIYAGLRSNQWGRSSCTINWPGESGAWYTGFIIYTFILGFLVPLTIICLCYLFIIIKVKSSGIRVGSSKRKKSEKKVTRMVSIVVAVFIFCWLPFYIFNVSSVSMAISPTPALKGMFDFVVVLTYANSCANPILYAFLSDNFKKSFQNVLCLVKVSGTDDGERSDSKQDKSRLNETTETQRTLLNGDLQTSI
T1 sequence (P35346 whole entry, species assumed): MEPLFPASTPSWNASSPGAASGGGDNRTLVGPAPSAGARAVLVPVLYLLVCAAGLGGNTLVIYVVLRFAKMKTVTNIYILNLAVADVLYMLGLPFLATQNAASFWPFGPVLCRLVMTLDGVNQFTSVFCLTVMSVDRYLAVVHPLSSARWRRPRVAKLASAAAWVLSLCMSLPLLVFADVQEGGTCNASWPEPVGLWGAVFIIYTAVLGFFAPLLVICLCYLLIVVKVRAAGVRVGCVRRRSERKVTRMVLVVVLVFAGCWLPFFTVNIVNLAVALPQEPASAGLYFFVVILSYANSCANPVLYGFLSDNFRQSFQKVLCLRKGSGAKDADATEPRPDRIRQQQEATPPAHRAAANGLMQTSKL
T5 sequence (P31391 whole entry, species assumed): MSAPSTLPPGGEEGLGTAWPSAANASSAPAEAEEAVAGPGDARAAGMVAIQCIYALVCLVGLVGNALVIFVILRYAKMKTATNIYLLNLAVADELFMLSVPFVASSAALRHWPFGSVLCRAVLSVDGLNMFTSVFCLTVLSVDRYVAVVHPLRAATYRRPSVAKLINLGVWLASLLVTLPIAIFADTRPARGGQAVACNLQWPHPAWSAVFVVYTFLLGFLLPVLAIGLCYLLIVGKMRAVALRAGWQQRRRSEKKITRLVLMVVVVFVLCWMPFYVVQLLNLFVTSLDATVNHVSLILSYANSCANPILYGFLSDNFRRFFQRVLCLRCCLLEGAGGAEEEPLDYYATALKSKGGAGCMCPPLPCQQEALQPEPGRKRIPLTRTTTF

Structure (SMILES): Cc1cccc2c(CC3C(=O)N(CCCCCN)C(=O)N3S(=O)(=O)c3ccc(Oc4ccc(O)cc4)c(C(=O)N(C)C)c3)c[nH]c12 (stereo not drawn) [Compound 46]
- INFUS. + GHRH ID50 MEAN ([1]; Table 4, mean of infusion time points): 7.89 µg/kg
- INFUS. + GHRH ID50 15′ ([1]; Table 4, urethan, 15′ of infusion): 9.38 µg/kg
- INFUS. + GHRH ID50 30′ ([1]; Table 4, urethan, 30′ of infusion): 8.14 µg/kg
- INFUS. + GHRH ID50 60′ ([1]; Table 4, urethan, 60′ of infusion): 6.43 µg/kg
- GH, Ur Inf15′ +GHRH ([1]; Tables 8/9, urethane, 15′ of infusion): 9.400 µg/kg/h
- GH, UR Inf30′ +GHRH ([1]; Tables 8/9, urethane, 30′ of infusion): 8.100 µg/kg/h
- GH, UR Inf60′ +GHRH ([1]; Tables 8/9, urethane, 60′ of infusion): 6.400 µg/kg/h
- GH vivo Inf + GHRH ID50 (mean of time points) ([1]; urethane, i.v. infusion, GHRH stimulated, listed as 46 b): 7.89 µg/kg/h and 7.900 µg/kg/h
- IC50 (SSTR5): 90 nM
- dose levels necessary for inhibition of hormone release, times higher than Octreotride [2]: about 100 times
- IC50 (SSTR1): > 1000 nM
- IC50 [3]: 0.43 nM
- GH vivo s.c. 1 h ID50 (GH secretion [4]): 7.4 µg/kg and 7 µg/kg
- GH vivo s.c. 1 h ID50 (GH secretion [4]; listed as 46 b): ˜7.40 μg/kg
- IC50 (SSTR3): 450 nM
- IC50 (SSTR4): > 1000 nM
- Bind SS1 D.H. (SS1): 0.63 nM
- GH vivo i.d. 1 h ID50 (GH secretion [5]): 19000 µg/kg
